Reference: ChEMBL document CHEMBL1909046, “DrugMatrix in vitro pharmacology data”

Biological target: T1, Neutrophil elastase (Homo sapiens, UniProt P08246);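 further: inhibition of neutrophil elastase enzyme activity, measured with a p-nitroanilide-linked peptide substrate; in other assays of this panel Not Active means under 50% inhibition at 10 µM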
T1 sequence (P08246 whole entry): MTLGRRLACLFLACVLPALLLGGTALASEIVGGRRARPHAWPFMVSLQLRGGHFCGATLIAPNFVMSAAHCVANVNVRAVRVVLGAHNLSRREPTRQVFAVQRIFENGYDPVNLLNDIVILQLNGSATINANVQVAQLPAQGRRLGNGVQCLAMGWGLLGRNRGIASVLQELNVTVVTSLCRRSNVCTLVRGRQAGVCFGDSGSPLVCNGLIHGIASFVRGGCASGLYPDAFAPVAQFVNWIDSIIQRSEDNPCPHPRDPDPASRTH
Assay: not given
Format: tissue-based
Conditions: not given

Row | SMILES | IC50 | Ki
1 | CC(C)(C)NCC(O)c1cc(Cl)c(N)c(Cl)c1 (centres undefined) [CLENBUTEROL] | Not Active | 
2 | Nc1nc2c(ncn2COCCO)c(=O)[nH]1 [ACYCLOVIR] | Not Active | 
3 | c1ccc2c(c1)c1cccc3ccc4cccc2c4c31 [BENZO[E]PYRENE] | Not Active | 
4 | O=C(O)CCCc1ccc(N(CCCl)CCCl)cc1 [CHLORAMBUCIL] | Not Active | 
5 | CC1(C)O[C@@H]2C[C@H]3[C@@H]4CCC5=CC(=O)CC[C@]5(C)[C@@]4(F)[C@@H](O)C[C@]3(C)[C@]2(C(=O)CCl)O1 [HALCINONIDE] | Not Active | 
6 | NC(=O)N1c2ccccc2CCc2ccccc21 | Not Active | 
7 | CC(C)C(Br)C(=O)NC(N)=O (centres undefined) [BROMISOVALUM] | Not Active | 
8 | COc1ccc(C[C@H]2NC[C@H](O)[C@H]2OC(C)=O)cc1 [ANISOMYCIN] | Not Active | Not Active

Biological target: T2, Nitric oxide synthase, inducible (Mus musculus, UniProt P29477);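 further: inhibition of iNOS enzyme activity measured with L-arginine as substrate; in other assays of this panel Not Active means under 50% inhibition at 10 µM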
T2 sequence (P29477 whole entry): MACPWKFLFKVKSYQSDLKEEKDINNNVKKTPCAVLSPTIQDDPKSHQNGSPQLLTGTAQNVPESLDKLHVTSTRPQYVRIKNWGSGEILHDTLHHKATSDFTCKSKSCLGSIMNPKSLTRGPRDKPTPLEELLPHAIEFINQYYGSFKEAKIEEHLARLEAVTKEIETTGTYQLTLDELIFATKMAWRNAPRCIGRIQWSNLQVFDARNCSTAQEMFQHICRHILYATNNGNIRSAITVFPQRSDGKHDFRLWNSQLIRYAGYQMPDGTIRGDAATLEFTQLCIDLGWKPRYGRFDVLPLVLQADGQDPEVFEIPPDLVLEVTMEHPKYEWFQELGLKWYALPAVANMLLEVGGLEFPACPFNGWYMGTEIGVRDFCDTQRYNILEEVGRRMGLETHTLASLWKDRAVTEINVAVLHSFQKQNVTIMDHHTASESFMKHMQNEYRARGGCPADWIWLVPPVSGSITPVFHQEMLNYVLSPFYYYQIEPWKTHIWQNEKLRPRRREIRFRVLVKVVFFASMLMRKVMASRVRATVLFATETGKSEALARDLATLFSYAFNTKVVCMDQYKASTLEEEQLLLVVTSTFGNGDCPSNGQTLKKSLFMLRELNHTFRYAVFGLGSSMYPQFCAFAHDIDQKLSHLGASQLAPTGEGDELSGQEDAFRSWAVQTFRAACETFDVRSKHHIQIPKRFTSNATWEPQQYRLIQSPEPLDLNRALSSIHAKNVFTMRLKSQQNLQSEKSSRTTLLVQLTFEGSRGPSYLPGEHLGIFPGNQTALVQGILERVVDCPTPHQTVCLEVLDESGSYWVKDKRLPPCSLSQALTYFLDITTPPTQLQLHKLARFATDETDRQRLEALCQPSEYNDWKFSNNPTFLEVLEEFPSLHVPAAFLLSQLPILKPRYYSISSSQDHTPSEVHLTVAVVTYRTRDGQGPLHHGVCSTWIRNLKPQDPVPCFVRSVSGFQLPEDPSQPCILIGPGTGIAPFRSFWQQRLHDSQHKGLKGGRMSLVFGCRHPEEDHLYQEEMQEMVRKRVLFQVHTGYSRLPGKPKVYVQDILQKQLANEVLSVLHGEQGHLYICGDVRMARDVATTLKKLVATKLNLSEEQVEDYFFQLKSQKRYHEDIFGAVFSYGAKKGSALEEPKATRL
Assay: not given
Parameters: species or system Escherichia coli
Conditions: not given

Row | SMILES | IC50 | Ki
9 | CC(C)(C)NCC(O)c1cc(Cl)c(N)c(Cl)c1 (centres undefined) [CLENBUTEROL] | Not Active | 
10 | Nc1nc2c(ncn2COCCO)c(=O)[nH]1 [ACYCLOVIR] | Not Active | 
11 | c1ccc2c(c1)c1cccc3ccc4cccc2c4c31 [BENZO[E]PYRENE] | Not Active | 
12 | O=C(O)CCCc1ccc(N(CCCl)CCCl)cc1 [CHLORAMBUCIL] | Not Active | 
13 | CC1(C)O[C@@H]2C[C@H]3[C@@H]4CCC5=CC(=O)CC[C@]5(C)[C@@]4(F)[C@@H](O)C[C@]3(C)[C@]2(C(=O)CCl)O1 [HALCINONIDE] | Not Active | 
14 | NC(=O)N1c2ccccc2CCc2ccccc21 | Not Active | 
15 | CC(C)C(Br)C(=O)NC(N)=O (centres undefined) [BROMISOVALUM] | Not Active | 
16 | COc1ccc(C[C@H]2NC[C@H](O)[C@H]2OC(C)=O)cc1 [ANISOMYCIN] | Not Active | Not Active

Biological target: Prostaglandin G/H synthase 1 (Homo sapiens, UniProt P23219);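 further: inhibition of COX-1 enzyme activity, with arachidonic acid supplied as substrate; in other assays of this panel Not Active means under 50% inhibition at 10 µM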
Sequence (P23219 whole entry): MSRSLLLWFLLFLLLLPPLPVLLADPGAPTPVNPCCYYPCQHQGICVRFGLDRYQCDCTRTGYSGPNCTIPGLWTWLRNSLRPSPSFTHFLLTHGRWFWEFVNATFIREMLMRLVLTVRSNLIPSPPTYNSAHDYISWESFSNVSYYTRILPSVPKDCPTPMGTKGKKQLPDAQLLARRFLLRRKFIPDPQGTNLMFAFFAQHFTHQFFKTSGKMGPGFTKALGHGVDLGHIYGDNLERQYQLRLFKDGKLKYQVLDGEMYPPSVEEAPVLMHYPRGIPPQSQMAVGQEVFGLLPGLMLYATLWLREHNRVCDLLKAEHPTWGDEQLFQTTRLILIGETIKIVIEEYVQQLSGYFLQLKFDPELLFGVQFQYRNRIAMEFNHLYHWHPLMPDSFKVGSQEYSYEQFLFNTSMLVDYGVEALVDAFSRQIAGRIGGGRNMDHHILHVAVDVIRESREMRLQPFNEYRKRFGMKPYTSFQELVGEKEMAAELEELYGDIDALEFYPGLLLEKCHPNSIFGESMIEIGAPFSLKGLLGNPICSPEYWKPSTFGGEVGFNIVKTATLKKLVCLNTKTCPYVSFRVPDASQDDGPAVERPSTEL
Assay: biochemical
Format: tissue-based, Platelet
Conditions: platelet

Row | SMILES | IC50 | Ki
17 | CC(C)(C)NCC(O)c1cc(Cl)c(N)c(Cl)c1 (centres undefined) [CLENBUTEROL] | Not Active | 
18 | Nc1nc2c(ncn2COCCO)c(=O)[nH]1 [ACYCLOVIR] | Not Active | 
19 | c1ccc2c(c1)c1cccc3ccc4cccc2c4c31 [BENZO[E]PYRENE] | Not Active | 
20 | O=C(O)CCCc1ccc(N(CCCl)CCCl)cc1 [CHLORAMBUCIL] | Not Active | 
21 | CC1(C)O[C@@H]2C[C@H]3[C@@H]4CCC5=CC(=O)CC[C@]5(C)[C@@]4(F)[C@@H](O)C[C@]3(C)[C@]2(C(=O)CCl)O1 [HALCINONIDE] | Not Active | 
22 | NC(=O)N1c2ccccc2CCc2ccccc21 | Not Active | 
23 | CC(C)C(Br)C(=O)NC(N)=O (centres undefined) [BROMISOVALUM] | Not Active | 
24 | COc1ccc(C[C@H]2NC[C@H](O)[C@H]2OC(C)=O)cc1 [ANISOMYCIN] | Not Active | Not Active

Biological target: Cytochrome P450 2D6 (Homo sapiens, UniProt P10635); further: in other assays of this panel Not Active means under 50% inhibition at 10 µM
Sequence (P10635 whole entry): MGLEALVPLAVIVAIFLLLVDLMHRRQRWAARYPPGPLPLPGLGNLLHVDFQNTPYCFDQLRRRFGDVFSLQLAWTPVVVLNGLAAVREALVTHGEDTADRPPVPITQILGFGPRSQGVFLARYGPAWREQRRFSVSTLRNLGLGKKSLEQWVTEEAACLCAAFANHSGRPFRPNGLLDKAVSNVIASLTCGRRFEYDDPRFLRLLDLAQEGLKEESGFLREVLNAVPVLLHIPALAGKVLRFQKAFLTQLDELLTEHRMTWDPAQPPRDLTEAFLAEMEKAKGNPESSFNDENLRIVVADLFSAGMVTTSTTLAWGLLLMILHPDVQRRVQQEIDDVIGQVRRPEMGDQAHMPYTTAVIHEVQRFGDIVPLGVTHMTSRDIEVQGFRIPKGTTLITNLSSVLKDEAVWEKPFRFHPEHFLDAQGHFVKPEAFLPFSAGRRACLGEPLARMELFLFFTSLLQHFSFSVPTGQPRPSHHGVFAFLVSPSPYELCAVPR
Assay: not given
Conditions: bti-tn-5b1-4

Row | SMILES | IC50 | Ki
25 | CC(C)(C)NCC(O)c1cc(Cl)c(N)c(Cl)c1 (centres undefined) [CLENBUTEROL] | Not Active | Not Active
26 | Nc1nc2c(ncn2COCCO)c(=O)[nH]1 [ACYCLOVIR] | Not Active | Not Active
27 | c1ccc2c(c1)c1cccc3ccc4cccc2c4c31 [BENZO[E]PYRENE] | Not Active | Not Active
28 | O=C(O)CCCc1ccc(N(CCCl)CCCl)cc1 [CHLORAMBUCIL] | Not Active | Not Active
29 | CC1(C)O[C@@H]2C[C@H]3[C@@H]4CCC5=CC(=O)CC[C@]5(C)[C@@]4(F)[C@@H](O)C[C@]3(C)[C@]2(C(=O)CCl)O1 [HALCINONIDE] | Not Active | Not Active
30 | NC(=O)N1c2ccccc2CCc2ccccc21 | Not Active | Not Active
31 | CC(C)C(Br)C(=O)NC(N)=O (centres undefined) [BROMISOVALUM] | Not Active | Not Active
32 | COc1ccc(C[C@H]2NC[C@H](O)[C@H]2OC(C)=O)cc1 [ANISOMYCIN] | Not Active | Not Active

Test system: not listed separately
Assay: DRUGMATRIX: Phosphodiesterase PDE4 enzyme inhibition (substrate: [3H]cAMP + cAMP)
Conditions: u-937; Not Active = under 50% inhibition at 10 µM

Row | SMILES | IC50 | Ki
33 | CC(C)(C)NCC(O)c1cc(Cl)c(N)c(Cl)c1 (centres undefined) [CLENBUTEROL] | Not Active | Not Active
34 | Nc1nc2c(ncn2COCCO)c(=O)[nH]1 [ACYCLOVIR] | Not Active | Not Active
35 | c1ccc2c(c1)c1cccc3ccc4cccc2c4c31 [BENZO[E]PYRENE] | Not Active | Not Active
36 | O=C(O)CCCc1ccc(N(CCCl)CCCl)cc1 [CHLORAMBUCIL] | Not Active | Not Active
37 | CC1(C)O[C@@H]2C[C@H]3[C@@H]4CCC5=CC(=O)CC[C@]5(C)[C@@]4(F)[C@@H](O)C[C@]3(C)[C@]2(C(=O)CCl)O1 [HALCINONIDE] | Not Active | Not Active
38 | NC(=O)N1c2ccccc2CCc2ccccc21 | Not Active | Not Active
39 | CC(C)C(Br)C(=O)NC(N)=O (centres undefined) [BROMISOVALUM] | Not Active | Not Active
40 | COc1ccc(C[C@H]2NC[C@H](O)[C@H]2OC(C)=O)cc1 [ANISOMYCIN] | Not Active | Not Active

Biological target: T3, Adenosine receptor A3 (Homo sapiens, UniProt P0DMS8)
T3 sequence (P0DMS8 whole entry): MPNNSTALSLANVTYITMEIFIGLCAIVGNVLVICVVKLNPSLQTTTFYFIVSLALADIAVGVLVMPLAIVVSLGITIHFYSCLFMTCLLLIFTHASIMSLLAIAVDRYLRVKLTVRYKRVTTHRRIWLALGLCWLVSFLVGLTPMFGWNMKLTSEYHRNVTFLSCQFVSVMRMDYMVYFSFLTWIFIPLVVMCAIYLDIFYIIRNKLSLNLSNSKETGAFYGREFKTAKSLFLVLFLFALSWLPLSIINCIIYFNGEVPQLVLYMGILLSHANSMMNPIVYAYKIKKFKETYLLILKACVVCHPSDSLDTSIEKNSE
Assay: not given
Format: cell membranes, CHO-K1, Membrane
Conditions: cho-k1

Row | SMILES | IC50 | Ki
41 | CC(C)(C)NCC(O)c1cc(Cl)c(N)c(Cl)c1 (centres undefined) [CLENBUTEROL] | Not Active | 
42 | Nc1nc2c(ncn2COCCO)c(=O)[nH]1 [ACYCLOVIR] | Not Active | 
43 | c1ccc2c(c1)c1cccc3ccc4cccc2c4c31 [BENZO[E]PYRENE] | Not Active | 
44 | O=C(O)CCCc1ccc(N(CCCl)CCCl)cc1 [CHLORAMBUCIL] | Not Active | 
45 | CC1(C)O[C@@H]2C[C@H]3[C@@H]4CCC5=CC(=O)CC[C@]5(C)[C@@]4(F)[C@@H](O)C[C@]3(C)[C@]2(C(=O)CCl)O1 [HALCINONIDE] | Not Active | 
46 | NC(=O)N1c2ccccc2CCc2ccccc21 | Not Active | 
47 | CC(C)C(Br)C(=O)NC(N)=O (centres undefined) [BROMISOVALUM] | Not Active | 
48 | COc1ccc(C[C@H]2NC[C@H](O)[C@H]2OC(C)=O)cc1 [ANISOMYCIN] | Not Active | Not Active

Test system: not listed separately
Assay: DRUGMATRIX: ATPase, Na+/K+ enzyme inhibition (substrate: ATP)
Format: tissue-based, Sus scrofa, Heart
Conditions: Not Active = under 50% inhibition at 10 µM

Row | SMILES | IC50 | Ki
49 | CC(C)(C)NCC(O)c1cc(Cl)c(N)c(Cl)c1 (centres undefined) [CLENBUTEROL] | Not Active | Not Active
50 | Nc1nc2c(ncn2COCCO)c(=O)[nH]1 [ACYCLOVIR] | Not Active | Not Active
51 | c1ccc2c(c1)c1cccc3ccc4cccc2c4c31 [BENZO[E]PYRENE] | Not Active | Not Active
52 | O=C(O)CCCc1ccc(N(CCCl)CCCl)cc1 [CHLORAMBUCIL] | Not Active | Not Active
53 | CC1(C)O[C@@H]2C[C@H]3[C@@H]4CCC5=CC(=O)CC[C@]5(C)[C@@]4(F)[C@@H](O)C[C@]3(C)[C@]2(C(=O)CCl)O1 [HALCINONIDE] | Not Active | Not Active
54 | NC(=O)N1c2ccccc2CCc2ccccc21 | Not Active | Not Active
55 | CC(C)C(Br)C(=O)NC(N)=O (centres undefined) [BROMISOVALUM] | Not Active | Not Active
56 | COc1ccc(C[C@H]2NC[C@H](O)[C@H]2OC(C)=O)cc1 [ANISOMYCIN] | Not Active | Not Active
